Experimental findings from DBAASP are described below.

Values after ≈ are worked out from the molar mass of the structure shown. Values joined by “and” are separate entries in the source; they are usually repeats but may differ in a detail not shown here. Equal entries are not always repeated.

Test systems include Staphylococcus aureus MR; Acinetobacter baumannii; Streptococcus mutans; Pseudomonas aeruginosa; Escherichia coli; Enterococcus faecium; Klebsiella pneumoniae; Staphylococcus aureus; Salmonella typhimurium; Bacillus subtilis.
What all share (assay): ≥ marks a high value that may be exact or a test limit, other limits are often not marked, values filed in µg/mL are converted to µM
The test system of test [1] is Staphylococcus aureus ATCC 29213.
Test [2] concerns Staphylococcus aureus ATCC 25923.
Test [3] concerns Acinetobacter baumannii ATCC 19606.
Test [4] relates to Pseudomonas aeruginosa ATCC 27853.
In test [5] the test system is Candida albicans ATCC 90028.
The subject of test [6] is Escherichia coli ATCC 25922.
The test system of test [7] is Staphylococcus aureus ATCC BAA-1556.
Test [8] concerns Klebsiella pneumoniae ATCC 13883.
The test system of test [9] is Staphylococcus aureus USA 300.
The subject of test [10] is Pseudomonas aeruginosa PAO1.
Test [11] has as its system Escherichia coli NCTC 10418.

For `CC[C@H](C)[C@H](NC(=O)[C@H](CCCN=C(N)N)NC(=O)[C@H](CCC(N)=O)NC(=O)[C@@H](NC(=O)[C@@H](NC(=O)[C@H](CCCN=C(N)N)NC(=O)[C@@H](N)CCCCN)[C@@H](C)CC)C(C)C)C(=O)N[C@@H](CCCCN)C(=O)N[C@@H](CCCCN)C(=O)N[C@@H](Cc1ccccc1)C(=O)N[C@@H](CC(C)C)C(=O)N[C@@H](CCCN=C(N)N)C(=O)O` [KRIVQRIKKFLR], the MIC in [1] was 1.25 µM (≈ 1.98 µg/mL); in the test on Staphylococcus aureus MR it was no less than 202 µM; in test [2], no less than 202 µM; in [3], no less than 50.5 µM; against Acinetobacter baumannii it was 12.6 µM (≈ 20 µg/mL); in test [4], 1.25 µM (≈ 1.98 µg/mL). Moreover, the MIC in test [5] came to 2.5 µM (≈ 3.96 µg/mL); in [6], 0.626 µM (≈ 0.992 µg/mL).

With `NCCCC[C@H](NC(=O)[C@H](CCCN=C(N)N)NC(=O)[C@H](CCCN=C(N)N)NC(=O)[C@H](Cc1c[nH]c2ccccc12)NC(=O)[C@H](Cc1c[nH]c2ccccc12)NC(=O)[C@H](CCCN=C(N)N)NC(=O)[C@@H](N)CCCN=C(N)N)C(=O)O` [RRWWRRK], in the test on Streptococcus mutans, the MIC is no less than 109 µM.

`CC[C@H](C)[C@H](NC(=O)[C@H](Cc1ccccc1)NC(=O)[C@H](Cc1cnc[nH]1)NC(=O)[C@@H](NC(=O)[C@H](Cc1ccccc1)NC(=O)[C@H](CCC(N)=O)NC(=O)[C@H](CCCCN)NC(=O)[C@@H](N)CC(C)C)C(C)C)C(=O)N[C@@H](Cc1cnc[nH]1)C(=O)N[C@@H](CCCN=C(N)N)C(=O)N[C@@H](Cc1ccccc1)C(N)=O` [LKQFVHFIHRF]: the MIC against Streptococcus mutans came out at 21.7 µM (≈ 32 µg/mL).

`NCCCC[C@H](NC(=O)[C@H](Cc1c[nH]c2ccccc12)NC(=O)[C@H](CCCN=C(N)N)NC(=O)[C@H](CCCCN)NC(=O)[C@H](CCCN=C(N)N)NC(=O)[C@H](Cc1c[nH]c2ccccc12)NC(=O)[C@@H](N)CCCN=C(N)N)C(=O)O` [RWRKRWK] yielded an MIC in the test with Streptococcus mutans of no less than 224 µM.

`CC(C)C[C@H](NC(=O)[C@H](CC(C)C)NC(=O)[C@H](CC(C)C)NC(=O)[C@H](CC(C)C)NC(=O)[C@H](CCCCN)NC(=O)[C@H](CCCCN)NC(=O)[C@H](CC(C)C)NC(=O)[C@H](CC(C)C)NC(=O)[C@@H](N)CC(C)C)C(N)=O` [LLLKKLLLL] displayed an MIC in test [7] of no less than 100 µM.

For `CC(C)C[C@H](NC(=O)[C@H](CC(C)C)NC(=O)[C@H](CCCCN)NC(=O)[C@H](CC(C)C)NC(=O)[C@H](CCCCN)NC(=O)[C@H](CC(C)C)NC(=O)[C@H](CO)NC(=O)[C@H](CC(C)C)NC(=O)[C@H](CC(C)C)NC(=O)[C@H](CC(C)C)NC(=O)[C@H](CO)NC(=O)[C@H](CC(C)C)NC(=O)CN)C(N)=O` [GLSLLLSLKLKLL], the MIC in [8] was 25 µM (≈ 35.2 µg/mL); in test [9] it was 6.2 µM (≈ 8.74 µg/mL); in test [10], greater than 25 µM; in test [6] it was greater than 25 µM.

With `CC[C@H](C)[C@H](NC(=O)[C@@H](NC(=O)[C@H](CO)NC(=O)[C@@H](NC(=O)[C@@H](NC(=O)[C@H](CCCCN)NC(=O)CNC(=O)[C@H](CC(C)C)NC(=O)[C@H](CC(C)C)NC(=O)CNC(=O)CNC(=O)[C@H](CC(C)C)NC(=O)[C@H](CC(C)C)NC(=O)CNC(=O)[C@H](CCCCN)NC(=O)[C@H](CO)NC(=O)[C@@H](NC(=O)[C@H](CCCCN)NC(=O)[C@H](Cc1c[nH]c2ccccc12)NC(=O)[C@H](Cc1c[nH]c2ccccc12)NC(=O)[C@H](CCCCN)NC(=O)[C@H](CCCCN)NC(=O)[C@@H](N)CC(C)C)[C@@H](C)O)C(C)C)[C@@H](C)O)C(C)C)C(=O)N[C@@H](CCCCN)C(=O)O` [LKKWWKTSKGLLGGLLGKVTSVIK], the MIC is 2.83 µM and 1 µM against Acinetobacter baumannii; 2.83 µM and 2 µM and 5.66 µM against Pseudomonas aeruginosa; 1.41 µM (≈ 3.74 µg/mL) against Escherichia coli; 5.66 µM (≈ 14.9 µg/mL) in test [9]; 1 µM (≈ 2.64 µg/mL) with Enterococcus faecium; 2.83 µM (≈ 7.47 µg/mL) against Klebsiella pneumoniae. In addition, the MIC in the test with Staphylococcus aureus was determined as 2 µM (≈ 5.28 µg/mL).

For the compound `CC(C)C[C@H](NC(=O)[C@H](CC(C)C)NC(=O)[C@H](CCCCN)NC(=O)CNC(=O)[C@H](CC(C)C)NC(=O)[C@H](CC(C)C)NC(=O)[C@H](CO)NC(=O)[C@H](CC(C)C)NC(=O)[C@H](CC(C)C)NC(=O)[C@H](CO)NC(=O)[C@H](CC(C)C)NC(=O)[C@H](C)NC(=O)CN)C(N)=O` [GALSLLSLLGKLL], the MIC stood at 6.2 µM (≈ 8.04 µg/mL) in [8], 0.78 µM (≈ 1.01 µg/mL) in test [9], 12.5 µM (≈ 16.2 µg/mL) in [10] and 3.1 µM (≈ 4.02 µg/mL) in test [6].

As for `CC[C@H](C)[C@H](NC(=O)CNC(=O)CNC(=O)CNC(=O)[C@H](Cc1cnc[nH]1)NC(=O)[C@H](CC(C)C)NC(=O)[C@H](CC(C)C)NC(=O)[C@H](Cc1cnc[nH]1)NC(=O)[C@H](Cc1cnc[nH]1)NC(=O)[C@H](CC(C)C)NC(=O)[C@H](CCCCN)NC(=O)[C@H](CCCCN)NC(=O)[C@H](CC(C)C)NC(=O)[C@H](CC(C)C)NC(=O)[C@H](CCCN=C(N)N)NC(=O)[C@H](CCCN=C(N)N)NC(=O)[C@H](Cc1c[nH]c2ccccc12)NC(=O)[C@@H](N)CCCN=C(N)N)C(=O)N[C@@H](CCCCN)C(=O)N[C@@H](CCC(N)=O)C(=O)N[C@@H](CC(C)C)C(=O)N[C@@H](CC(C)C)C(=O)N[C@@H](Cc1cnc[nH]1)C(=O)N[C@@H](Cc1ccccc1)C(=O)N[C@@H](Cc1ccccc1)C(=O)N[C@@H](CCC(N)=O)C(=O)N[C@@H](CCCN=C(N)N)C(=O)N[C@@H](Cc1ccccc1)C(N)=O` [RWRRLLKKLHHLLHGGGIKQLLHFFQRF], the MIC against Streptococcus mutans was 4.52 µM (≈ 16 µg/mL).

Turning to `CC(C)C[C@H](NC(=O)[C@H](CC(C)C)NC(=O)[C@H](CCCCN)NC(=O)CNC(=O)[C@H](CC(C)C)NC(=O)[C@H](CO)NC(=O)[C@H](CO)NC(=O)[C@H](CC(C)C)NC(=O)CN)C(N)=O` [GLSSLGKLL], the MIC in test [8] is 25 µM (≈ 22.2 µg/mL); in test [9] it was 25 µM (≈ 22.2 µg/mL); in test [10] it was greater than 25 µM; in test [6] it was greater than 25 µM.

As for `CC(C)C[C@H](NC(=O)[C@H](CC(C)C)NC(=O)[C@H](Cc1cnc[nH]1)NC(=O)[C@H](Cc1cnc[nH]1)NC(=O)[C@H](CC(C)C)NC(=O)[C@H](Cc1cnc[nH]1)NC(=O)[C@H](CCCCN)NC(=O)[C@H](CC(C)C)NC(=O)[C@H](CC(C)C)NC(=O)[C@H](CCCCN)NC(=O)[C@H](CCCCN)NC(=O)[C@H](CC(C)C)NC(=O)[C@@H](N)CCCCN)C(=O)N[C@@H](Cc1cnc[nH]1)C(N)=O` [KLKKLLKHLHHLLH], in the test on Streptococcus mutans, the MIC was determined as 4.55 µM (≈ 8 µg/mL).

Regarding `CC(C)[C@H](NC(=O)CNC(=O)[C@H](CCCN=C(N)N)NC(=O)[C@@H](NC(=O)[C@@H](NC(=O)[C@@H](NC(=O)[C@H](CCCN=C(N)N)NC(=O)CNC(=O)[C@H](Cc1c[nH]c2ccccc12)NC(=O)[C@H](CCCN=C(N)N)NC(=O)[C@@H](NC(=O)[C@@H](NC(=O)[C@@H](NC(=O)CN)C(C)C)C(C)C)C(C)C)C(C)C)C(C)C)C(C)C)C(=O)N[C@@H](CCCN=C(N)N)C(=O)N[C@@H](CCCN=C(N)N)C(N)=O` [GVVVRWGRVVVRGVRR], the MIC was determined as 8 µM (≈ 14.8 µg/mL) against Escherichia coli, 4 µM (≈ 7.4 µg/mL) against Salmonella typhimurium, 4 µM (≈ 7.4 µg/mL) in the test on Bacillus subtilis and 8 µM (≈ 14.8 µg/mL) in the test with Staphylococcus aureus.

As to `CC(C)C[C@H](NC(=O)[C@H](CC(C)C)NC(=O)[C@H](CCCCN)NC(=O)CNC(=O)[C@H](CC(C)C)NC(=O)[C@H](CO)NC(=O)[C@H](CO)NC(=O)[C@H](CC(C)C)NC(=O)[C@H](CC(C)C)NC(=O)CN)C(N)=O` [GLLSSLGKLL], the MIC in test [8] was 25 µM (≈ 25 µg/mL); in test [9], 25 µM (≈ 25 µg/mL); in test [10], greater than 25 µM; in [6] it was greater than 25 µM.

In the test on Streptococcus mutans, `C[C@H](N)C(=O)N[C@@H](CCC(N)=O)C(=O)N[C@@H](C)C(=O)N[C@@H](C)C(=O)N[C@@H](CCCCN)C(=O)N[C@@H](CCC(N)=O)C(=O)N[C@@H](C)C(=O)N[C@@H](C)C(=O)N[C@@H](CCCCN)C(=O)N[C@@H](C)C(=O)N[C@@H](C)C(=O)N[C@@H](CCCCN)C(=O)N[C@@H](CCC(N)=O)C(=O)N[C@@H](Cc1ccccc1)C(N)=O` [AQAAKQAAKAAKQF] registered an MIC of no less than 87.3 µM.

Compound `C[C@H](NC(=O)CN)C(=O)N1CCC[C@H]1C(=O)N[C@@H](CCCCN)C(=O)NCC(=O)N[C@H]1CSSC[C@@H](C(=O)N[C@@H](CCCCN)C(N)=O)NC(=O)[C@@H]2CCCN2C(=O)[C@H](CCCCN)NC(=O)[C@@H]2CCCN2C(=O)[C@@H]2CCCN2C(=O)[C@H](Cc2ccc(O)cc2)NC(=O)[C@H](CO)NC(=O)[C@H](CCCCN)NC(=O)[C@H]([C@@H](C)O)NC(=O)[C@H](Cc2c[nH]c3ccccc23)NC1=O` [GAPKGCWTKSYPPKPCK] yielded an MIC in test [11] of no less than 160 µM.
